System: mice
Test: Hypnotic activity: loss of righting reflex after intravenous injection in mice
Assay type: in vivo
Settings: intravenous injection over 10 seconds, dose causing loss of righting reflex for minimum 30 seconds in 50% of treated mice; for ED50: Mus musculus, read-out: HD50 (hypnotic dose50)
Method: The hypnotic potency of the alanine 2,6-dialkoxyphenyl ester derivatives of the invention was determined upon their intravenous administration in mice. The dose required to cause a loss of righting reflex for a minimum period of 30 seconds in 50% of treated mice after intravenous injection over 10 seconds was determined. This dose is termed the HD50 (hypnotic dose50) and is expressed in μmol.kg^−1. These in vivo experiments were carried out as described in detail by Anderson et al., J. Med. Chem. 1997, 40, 1668–1681.

| Compound | HD50 (hypnotic dose50) | ED50 |
| --- | --- | --- |
| COC(=O)CC(C(=O)Oc1c(OC)cc(C)cc1OC)N1CCOCC1 (stereo not shown) [Example 26b, Butanedioic, 2-(4-morpholinyl)-, 1-(2,6-dimethoxy-4-methylphenyl)ester, 4-methyl ester] | 46 µmol/kg | – |
| COc1cc(C)cc(OC)c1OC(=O)C(CCSC)N1CCCC1 (stereo not shown) [Example 39b, Butanoic acid, 4-(methylthio)-2-(1-pyrrolidinyl)-, 1-(2,6-dimethoxy-4-methylphenyl)ester] | 31 µmol/kg | – |
| COCCN(CCOC)C(COC)C(=O)Oc1c(OC)cc(C)cc1OC (stereo not shown) [Example 51c, (ξ)-2-[N-Bis(2-methoxyethyl)amino]-3-methoxypropionic acid, 2,6-dimethoxy-4-methylphenyl ester] | 24 µmol/kg | – |
| COCCC(C(=O)Oc1c(OC)cccc1OC)N1CCCOCC1 (stereo not shown) [Example 51a, (ξ)-2-[4-(Hexahydro-1-oxazepinyl)]-4-methoxybutyric acid,2,6-dimethoxyphenyl ester] | 15 µmol/kg | – |
| COc1cccc(OC)c1OC(=O)C(CCSC)N1CCCCC1 (stereo not shown) [Example 40a, Butanoic acid, 4-(methylthio)-2-(1-piperidinyl)-, 1-(2,6-dimethoxyphenyl)ester] | <26 µmol/kg | – |
| COCC(C(=O)Oc1c(OC)cc(C)cc1OC)N1CCCC1 (stereo not shown) [Example 3n, 3-Methoxy-2-[1-pyrrolidinyl]propionic acid, 2,6-dimethoxy-4-methylphenyl ester] | – | 34 µmol/kg |
| COc1cccc(OC)c1OC(=O)C(CN1CCc2ccccc2C1)N1CCOCC1 (stereo not shown) [Example 19j, 2-(4-Morpholinyl)-3-(1,2,3,4-tetrahydroisoquinoline)propanoic acid, 2,6-dimethoxyphenyl ester] | 21 µmol/kg | – |
| COCCC(C(=O)Oc1c(OC)cc(C)cc1OC)N(CCOC)CCOC (stereo not shown) [Example 10l, 2-[N-(Bis(2-methoxyethyl)amino)]-4-methoxybutyric acid, 2,6-dimethoxy-4-methylphenyl ester] | 26 µmol/kg | – |
| COCCC(C(=O)Oc1c(OC)cccc1OC)N1CCCOCC1 (stereo not shown) [Example 51b, (ξ)-2-[4-(Hexahydro-1-oxazepinyl)]-4-methoxybutyric acid,2,6-dimethoxyphenyl ester] | 30 µmol/kg | – |
| COCCC(C(=O)Oc1c(OC)cccc1OC)N1CC=CCC1 (stereo not shown) [Example 10c, 4-Methoxy-2-[1-(1,2,3,6-tetrahydropyridinyl)]butyric acid, 2,6-dimethoxyphenyl ester] | 22 µmol/kg | – |
| COc1cccc(OC)c1OC(=O)C(CCSC)N1CCCC1 (stereo not shown) [Example 40b, Butanoic acid, 4-(methylthio)-2-(1-pyrrolidinyl)-, 1-(2,6-dimethoxyphenyl)ester] | 40 µmol/kg | – |
| COCC(C(=O)Oc1c(OC)cc(C)cc1OC)N1CCCOCC1 (stereo not shown) [Example 3m, 2-[4-(Hexahydro-1-oxazepinyl)]-3-methoxypropionic acid, 2,6-dimethoxy-4-methylphenyl ester] | 31 µmol/kg | – |
| CCOCCC(C(=O)Oc1c(OC)cccc1OC)N(CCOC)CCOC (stereo not shown) [Example 10r, 2-[N-(Bis(2-methoxyethyl)amino)]-4-ethoxybutyric acid, 2,6-dimethoxyphenyl ester] | 27 µmol/kg | – |
| CCN(CC)C(=O)CC(C(=O)Oc1c(OC)cc(C)cc1OC)N1CCOCC1 (stereo not shown) [Example 32a, Butanedioic, 4-(diethylamino)-4-oxo-, 2-(4-morpholinyl)-, 1-(2,6-dimethoxy4-methylphenyl)ester] | 38 µmol/kg | – |
| COc1cccc(OC)c1OC(=O)C(CCN1CCOC(C)(C)C1)N1CCOC(C)(C)C1 (stereo not shown) [Example 21b] | 25 µmol/kg | – |
| COc1cccc(OC)c1OC(=O)C(CN1CCOCC1)N1CCSCC1 (stereo not shown) [Example 19a, 3-(4-Morpholinyl)-2-(N-thiomorpholinyl)propanoic acid, 2,6-dimethoxyphenyl ester] | – | 17 µmol/kg |

| Compound | HD50 (hypnotic dose50) | ED50 |
| --- | --- | --- |
| COc1cccc(OC)c1OC(=O)C(CN1CCOCC1)N1CCOCC1 (stereo not shown) [Example 18c, 2,3-Di-(4-morpholinyl)propanoic acid, 2,6-dimethoxyphenyl ester] | – | 31 µmol/kg |
| COCCC(C(=O)Oc1c(OC)cccc1OC)N1CCC(OC)CC1 (stereo not shown) [Example 10d, 4-Methoxy-2-[1-(4-methoxypiperidinyl)]butyric acid, 2,6-dimethoxyphenyl ester] | 21 µmol/kg | – |
| CCOCCN(CCOCC)C(COC)C(=O)Oc1c(OC)cc(C)cc1OC (stereo not shown) [Example 3q, 2-[N-Bis(2-ethoxyethyl)amino]-3-methoxypropionic acid, 2,6-dimethoxy-4-methylphenyl ester] | 23 µmol/kg | – |
| 2-[N-(Hexahydroazepinyl)]-3-methoxypropionic acid, 2,6-dimethoxyphenyl ester [Example 3d] | 22 µmol/kg | – |
| COc1cccc(OC)c1OC(=O)C(CCSC)N1CCCCCCC1 (stereo not shown) [Example 40d, Butanoic acid, 2-(1-hexahydroazocinyl)-4-(methylthio), 1-(2,6-dimethoxyphenyl)ester] | 35 µmol/kg | – |
| CCOCCN(CCOCC)C(COC)C(=O)Oc1c(OC)cccc1OC (stereo not shown) [Example 3g, 2-[N-Bis(3-ethoxyethyl)amino]-3-methoxypropionic acid, 2,6-dimethoxyphenyl ester] | 25 µmol/kg | – |
| COc1cccc(OC)c1OC(=O)C(CN1CC=CCC1)N1CCSCC1 (stereo not shown) [Example 19k, 3-(1,2,3,6-Tetrahydropyridinyl)-2-(N-thiomorpholinyl)propanoic acid, 2,6-dimethoxyphenyl ester] | 15 µmol/kg | – |
| COc1cc(C)cc(OC)c1OC(=O)C(CC(=O)N1CCCCC1)N1CCCCC1 (stereo not shown) [Example 34a, Butanedioic, 4-(1-piperidinyl)-4-oxo-, 2-(1-piperidinyl)-, 1-(2,6-dimethoxy-4-methylphenyl)ester] | 38 µmol/kg | – |
| COCCC(C(=O)Oc1c(OC)cc(C)cc1OC)N1CCOCC1 (stereo not shown) [Example 10i, 4-Methoxy-2-[4-morpholinyl]butyric acid, 2,6-dimethoxy-4-methylphenyl ester] | – | 36 µmol/kg |
| CCC1(C)CN(C(CN2CCOCC2)C(=O)Oc2c(OC)cccc2OC)CCO1 (stereo not shown) [Example 19f, 2-[4-(2-Ethyl-2-methylmorpholinyl)]-3-(4-morpholinyl)propanoic acid, 2,6-dimethoxyphenyl ester] | 21 µmol/kg | – |
| COc1cccc(OC)c1OC(=O)C(CC(=O)N1CCCCC1)N1CCCCC1 (stereo not shown) [Example 34b, Butanedioic, 4-(1-piperidinyl)-4-oxo-, 2-(1-piperidinyl)-1-(2,6-dimethoxyphenyl)ester] | 39 µmol/kg | – |
| COCCN(CCOC)C(COC)C(=O)Oc1c(OC)cc(C)cc1OC (stereo not shown) [Example 3i, 2-[N-Bis(2-methoxyethyl)amino]-3-methoxypropionic acid, 2,6-dimethoxy-4-methylphenyl ester] | 28 µmol/kg | – |
| CCOCCC(C(=O)Oc1c(OC)cc(C)cc1OC)N1CCCCCC1 (stereo not shown) [Example 10u, 4-Ethoxy-2-[1-hexahydroazepinyl]butyric acid, 2,6-dimethoxy-4-methylphenyl ester] | – | 17 µmol/kg |
| COC(=O)CCC(C(=O)Oc1c(OC)cccc1OC)N1CCSCC1.Cl (stereo not shown) [Example 47c, Pentanedioic acid, 2-(N-thiomorpholinyl)-, 1-(2,6-dimethoxyphenyl)ester, 5-methyl ester hydrochloride (1:1) salt] | 44 µmol/kg | – |
| CCOCCN(CCOCC)C(CCOC)C(=O)Oc1c(OC)cc(C)cc1OC (stereo not shown) [Example 10m, 2-[N-(Bis(2-ethoxyethyl)amino)]-4-methoxybutyric acid, 2,6-dimethoxy-4-methylphenyl ester] | 25 µmol/kg | – |
